SMILES strings stand for the structures. In brackets after ≈: the same amount, converted by molar mass. Some results are limits rather than exact numbers.

This passage reports IC50 results from patent US5739169A, “Aromatic compounds for inhibiting immune response” (Procept, Incorporated, priority 1996, dated 1998).

Holding throughout (assay type): cell-based
In assay [1] the test system is human peripheral blood lymphocyte (PBL). The experiment in a line: cells.
Assay [2] has as its system human transformed T cell line, H9. Briefly: H9 proliferation Assay. The conditions noted are these: 3 days culture, 3H-thymidine pulse on day 3, harvest 16 hours later. As to the method:
The human transformed T cell line, H9 (ATCC Rockville, Md.), was cultured at 3000/well in RPMI 1640 medium supplemented with 5 % human AB serum, glutamine (2 mM), penicillin/streptomycin (50 U/ml, 50 micrograms/ml), sodium pyruvate (1 mM), HEPES (10 mM), and non-essential amino acids (1X) in a total of 200 microliter/well in a 96 well plate. The H9 cells were cultured with and without various dilutions of test compound for 3 days.
The cells were pulsed on day 3 with 1 microCurie/well of ^3 H-thymidine using a standard procedure known in the art. The cells were then harvested 16 hours later onto glass fiber filters using a TOMTEC cell harvester. Cellular proliferation was assessed by thymidine incorporation and measured by liquid scintillation counting using a Beta plate counter (Pharmacia, Inc., Piscataway, N.J.). The IC 50 represents the amount of compound necessary to inhibit 50% of the thymidine incorporation.

For assay [3], the system named is PBLs. Briefly: Mixed Lymphocyte Reactions (MLR) Assay. The conditions noted are these: Homo sapiens, 3H-thymidine pulse on day 5, harvest 16 hours later. As to the method:
Mixed Lymphocyte Reactions (MLR) Assay
Blood samples were drawn from two donors and the lymphocytes were separated out by Ficoll gradient by standard procedures known in the art. The isolated lymphocytes from done 1 were left untreated and the cells from donor 2 where suspended in Hanks Balanced Salt Solution at 10^7 /ml and treated with 50 micrograms/ml mitomycin C for 30 minutes at 37° C.
The PBLs were cultured in RPMI 1640 medium containing 5% human AB serum, glutamine (2 mM), penicillin/streptomycin (50 micrograms/ml / 50 micrograms/ml), sodium pyruvate (1 mM) and HEPES buffer (10 mM). For assay purposes, 10^5 PBLs from each donor were added to each well of a 96-well plate in a total volume of 200 microliters along with various dilutions of test compound.
The cultures were pulsed with 1 microCurie ^3 H-thymidine on day 5 and harvested 16 hours later onto a glass fiber filter. Thymidine incorporation was measured by liquid scintillation counting using a Beta plate counter. The IC50 represents the amount of compound necessary to inhibit 50 % of the thymidine incorporation.

In general, IC50 refers to the midpoint of a concentration-inhibition curve. `COc1cc(-c2ccc(Nc3ccccc3C(=O)O)c(OC)c2)ccc1N` [PRO3249] displayed an IC50 in assay [1] of 0.005 µg/mL (≈ 0.0137 µM). In assay [1], `COc1cc(-c2ccc(Nc3ccccc3C(=O)O)c(OC)c2)ccc1NC(=O)OC(C)(C)C` [PRO4323] returned an IC50 of 0.015 µg/mL (≈ 0.0323 µM). Still for that read-out and setting: the same measure for `COc1cc(-c2ccc(Nc3ccccc3C(=O)O)c(OC)c2)ccc1NC(C)=O` [PRO4379]: 0.133 µg/mL (≈ 0.327 µM); for `COc1cc(-c2ccc(Nc3ccccc3C(=O)O)c(OC)c2)ccc1Br` [PRO4402]: 0.03 µg/mL (≈ 0.07 µM); for `COc1cccc(-c2ccc(Nc3ccccc3C(=O)O)c(OC)c2)c1` [PRO4403]: 0.012 µg/mL (≈ 0.0343 µM). For the compound `COc1cc(-c2ccc([N+](=O)[O-])c(OC)c2)ccc1Nc1ccccc1C(=O)O` [PRO4636], the IC50 in assay [2] came out at 3.2 µg/mL (≈ 8.11 µM).

In assay [1], `Nc1ccc(-c2ccc(Nc3ccccc3C(=O)O)cc2)cc1` [PRO4707] gave an IC50 of 0.086 µg/mL (≈ 0.283 µM).

In assay [1], `Nc1ccc(C(=O)c2ccc(Nc3ccccc3C(=O)O)cc2)cc1` [PRO4708] yielded an IC50 of 0.345 µg/mL (≈ 1.04 µM).

`O=C(O)c1ccccc1Nc1ccc(-c2ccccc2)cc1` [PRO4917]: in assay [1], half-maximal inhibition (IC50) was put at 0.296 µg/mL (≈ 1.02 µM). Compound `Nc1cccc(C(=O)c2cccc(Nc3ccccc3C(=O)O)c2)c1` [PRO4919] had an IC50 in assay [3] of 5 µg/mL (≈ 15 µM). In assay [1], `COC(=O)c1ccccc1Nc1ccc(-c2ccc(N)c(OC)c2)cc1OC` [PRO5021] gave an IC50 of 0.037 µg/mL (≈ 0.0978 µM). `CC(=O)Nc1ccc(-c2ccc(Nc3ccccc3C(=O)O)cc2)cc1` [PRO5023]: in assay [1], the IC50 is over 1 µg/mL.

`COc1cc(-c2ccc(Nc3ccccc3-c3nn[nH]n3)c(OC)c2)ccc1N` [PRO5105] registered a 50% inhibitory concentration (IC50) in assay [1] of over 1 µg/mL. In turn, `COc1cc(-c2ccc([N+](=O)[O-])c(OC)c2)ccc1Nc1ccccc1-c1nn[nH]n1` [PRO5106] came in with an IC50 in assay [1] of over 1 µg/mL. The same measure, in the same setting: the same measure for `COc1cc(-c2ccc(N(C)C)c(OC)c2)ccc1Nc1ccccc1C(=O)O` [PRO6365]: 0.194 µg/mL (≈ 0.494 µM); for `CNc1ccc(-c2ccc(Nc3ccccc3C(=O)O)c(OC)c2)cc1OC` [PRO6370]: 0.01 µg/mL (≈ 0.0264 µM).
